Measured values from publication PMC11989005, “The Elongation Factor 1 Alpha Promoter Drives the Functional Expression of Kir2A in Plutella xylostella Cells” (International Journal of Molecular Sciences, 2025).
Read-outs that look alike come from different tables or passages of the source.

Molecular target: T1, PxKir2A (Plutella xylostella, UniProt A0A7L7TNR0)
T1 construct: gene kir2; full-length ORF in pEF1alpha-PxKir2A, no tag stated; transiently expressed in P. xylostella Px4-2 cells, EGFP co-transfected from a separate plasmid
T1 sequence (A0A7L7TNR0 entry or part of it): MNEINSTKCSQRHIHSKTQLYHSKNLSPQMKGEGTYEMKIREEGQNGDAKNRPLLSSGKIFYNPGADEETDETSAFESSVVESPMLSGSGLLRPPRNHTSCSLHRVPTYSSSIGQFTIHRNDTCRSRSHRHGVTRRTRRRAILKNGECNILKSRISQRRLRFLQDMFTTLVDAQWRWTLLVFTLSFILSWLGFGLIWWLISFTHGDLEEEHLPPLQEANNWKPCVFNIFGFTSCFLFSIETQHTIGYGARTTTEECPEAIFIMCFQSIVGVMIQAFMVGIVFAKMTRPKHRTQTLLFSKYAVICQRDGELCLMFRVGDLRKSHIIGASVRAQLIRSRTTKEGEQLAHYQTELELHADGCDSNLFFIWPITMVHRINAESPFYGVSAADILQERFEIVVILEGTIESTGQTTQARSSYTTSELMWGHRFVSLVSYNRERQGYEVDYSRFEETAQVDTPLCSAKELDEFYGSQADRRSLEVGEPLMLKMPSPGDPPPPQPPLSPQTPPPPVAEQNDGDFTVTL
Test: whole-cell patch clamp, inhibition of inward K+ current
Format: cell-based

O=[N+]([O-])c1ccc(CN2CCOCCOCCN(Cc3ccc([N+](=O)[O-])cc3)CCOCC2)cc1 [VU590]
IC50: 634 nM

CCC(=O)N1c2ccc(S(=O)(=O)Nc3cccc(OC)c3)cc2CC1C (centres unmarked) [VU625]
IC50 (bath 50 mM KCl, pH 6.4, 25 °C, holding -20 mV, steps -120 to +20 mV, DMSO <0.05%, read-out: IC50): 151 nM
